From ChEMBL document CHEMBL3817803, “Design, Synthesis, and Evaluation of Donepezil-Like Compounds as AChE and BACE-1 Inhibitors” (ACS Med Chem Lett, 2016)
pIC50, pKi: −log10 of the molar value. Activity calls are given as the source filed them. No cut-off for these calls is given here.

How the values were obtained:
Cholinesterase [1] = molecular target: T1, Cholinesterase (Equus caballus, UniProt P81908); assay: Inhibition of horse serum BuChE using butyrylthiocoline iodide as substrate incubated for 20 mins by Ellman method
T1 sequence (P81908 whole entry): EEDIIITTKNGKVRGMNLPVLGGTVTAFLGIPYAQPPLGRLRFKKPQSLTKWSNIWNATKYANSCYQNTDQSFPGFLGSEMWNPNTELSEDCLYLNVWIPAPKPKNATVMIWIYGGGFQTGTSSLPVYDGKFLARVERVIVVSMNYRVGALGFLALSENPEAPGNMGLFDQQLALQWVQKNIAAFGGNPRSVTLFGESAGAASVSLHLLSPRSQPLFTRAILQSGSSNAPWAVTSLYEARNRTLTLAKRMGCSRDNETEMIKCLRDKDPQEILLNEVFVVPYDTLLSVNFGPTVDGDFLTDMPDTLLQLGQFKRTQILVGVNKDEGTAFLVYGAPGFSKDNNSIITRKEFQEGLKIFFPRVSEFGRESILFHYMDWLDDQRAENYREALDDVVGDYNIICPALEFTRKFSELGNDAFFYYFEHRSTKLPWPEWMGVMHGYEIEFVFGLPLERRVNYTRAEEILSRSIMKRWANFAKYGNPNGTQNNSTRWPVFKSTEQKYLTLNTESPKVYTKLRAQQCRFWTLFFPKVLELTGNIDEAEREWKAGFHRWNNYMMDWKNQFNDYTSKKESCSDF

[2] = Selectivity ratio of IC50 for horse serum BuChE to IC50 for human erythrocytes AchE
[3] = molecular target: Cholinesterase (Equus caballus) (UniProt P81908); assay: Inhibition of horse serum BuChE using butyrylthiocoline iodide as substrate at 2 uM preincubated for 20 mins followed by 100 fold dilution by Ellman method
Chain of Cholinesterase (Equus caballus) (P81908 whole entry): as above

[4] = Selectivity ratio of Ki for horse serum BuChE to Ki for human erythrocytes AchE
[5] = molecular target: Cholinesterase (Equus caballus) (UniProt P81908); assay: Inhibition of horse serum BuChE using butyrylthiocholine iodide as substrate at 2 uM incubated for 20 mins by Ellman method
Acetylcholinesterase [6] = molecular target: T2, Acetylcholinesterase (Homo sapiens, UniProt P22303); assay: Non-competitive inhibition of human erythrocytes AchE using acetylthiocholine iodide as substrate incubated for 20 mins by Lineweaver-Burk plot analysis
T2 sequence (P22303 whole entry): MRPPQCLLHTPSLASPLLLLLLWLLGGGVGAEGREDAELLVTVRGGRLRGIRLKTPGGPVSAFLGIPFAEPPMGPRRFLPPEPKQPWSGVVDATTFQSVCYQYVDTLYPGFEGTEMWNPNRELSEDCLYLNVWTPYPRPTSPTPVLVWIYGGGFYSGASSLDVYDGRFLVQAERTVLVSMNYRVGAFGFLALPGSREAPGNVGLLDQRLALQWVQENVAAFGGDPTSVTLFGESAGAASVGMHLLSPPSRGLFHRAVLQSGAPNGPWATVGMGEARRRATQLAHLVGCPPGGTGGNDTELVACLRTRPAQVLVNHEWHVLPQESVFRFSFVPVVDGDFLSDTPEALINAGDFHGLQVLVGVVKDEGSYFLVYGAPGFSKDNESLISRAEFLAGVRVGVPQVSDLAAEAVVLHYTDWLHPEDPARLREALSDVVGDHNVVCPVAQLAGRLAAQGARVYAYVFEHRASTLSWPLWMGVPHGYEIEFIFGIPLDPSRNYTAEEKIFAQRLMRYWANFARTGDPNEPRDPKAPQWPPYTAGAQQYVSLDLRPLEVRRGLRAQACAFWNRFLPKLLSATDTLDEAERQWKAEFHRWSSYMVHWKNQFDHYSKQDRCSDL

Acetylcholinesterase [7] = molecular target: T2, Acetylcholinesterase; assay: Inhibition of human erythrocytes AchE using acetylthiocholine iodide as substrate incubated for 20 mins by Ellman method
Cholinesterase [8] = molecular target: T1, Cholinesterase; assay: Mixed inhibition of horse serum BuChE using butyrylthiocoline iodide as substrate incubated for 20 mins by Lineweaver-Burk plot analysis
[9] = molecular target: Beta-secretase 1 (Mus musculus) (UniProt P56818); assay: Inhibition of mouse BACE-1 at 1 uM preincubated for 10 mins followed by fluorescent peptide substrate addition measured for 30 mins by fluorescence plate reader method
Chain of Beta-secretase 1 (Mus musculus) (P56818 whole entry): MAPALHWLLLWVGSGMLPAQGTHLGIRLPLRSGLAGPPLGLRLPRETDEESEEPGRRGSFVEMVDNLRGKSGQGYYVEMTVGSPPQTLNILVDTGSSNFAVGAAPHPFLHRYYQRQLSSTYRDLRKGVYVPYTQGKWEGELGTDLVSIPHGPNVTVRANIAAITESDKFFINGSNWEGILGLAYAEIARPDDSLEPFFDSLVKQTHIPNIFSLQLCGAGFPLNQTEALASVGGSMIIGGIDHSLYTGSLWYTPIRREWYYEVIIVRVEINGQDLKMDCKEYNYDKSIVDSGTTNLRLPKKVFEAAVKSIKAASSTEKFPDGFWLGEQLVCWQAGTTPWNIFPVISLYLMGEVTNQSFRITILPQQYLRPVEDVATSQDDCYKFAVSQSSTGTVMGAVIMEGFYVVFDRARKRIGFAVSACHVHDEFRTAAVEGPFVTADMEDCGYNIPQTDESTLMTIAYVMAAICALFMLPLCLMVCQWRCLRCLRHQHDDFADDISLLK

Cholinesterase [10] = molecular target: T1, Cholinesterase; assay: Non-competitive inhibition of horse serum BuChE using butyrylthiocoline iodide as substrate incubated for 20 mins by Lineweaver-Burk plot analysis
Beta-secretase 1 = Beta-secretase 1 (Mus musculus, UniProt P56818); assay: Inhibition of mouse BACE-1 preincubated for 10 mins followed by fluorescent peptide substrate addition measured for 30 mins by fluorescence plate reader method
Chain of Beta-secretase 1 (P56818 whole entry): as above

Acetylcholinesterase [11] = molecular target: T2, Acetylcholinesterase
Description: Mixed inhibition of human erythrocytes AchE using acetylthiocholine iodide as substrate incubated for 20 mins by Lineweaver-Burk plot analysis

SMILES	pIC50 (Cholinesterase [1])	Ratio IC50 [2]	inhibition [3]	Ratio Ki [4]	inhibition [5]	pKi (Acetylcholinesterase [6])	pIC50 (Acetylcholinesterase [7])	pKi (Cholinesterase [8])	inhibition [9]	pKi (Cholinesterase [10])	pIC50 (Beta-secretase 1)	pKi (Acetylcholinesterase [11])
COc1cccc2c1C(=O)/C(=C/C1CCN(Cc3ccccc3)CC1)C2	5.94	1	Active	2	inactive	5.74	5.82	5.51	–	–	–	–
COc1cccc2c1C(=O)/C(=C/C1CCN(Cc3ccc4c(c3)OCO4)CC1)C2	5.32	–	Active	–	inactive	–	–	–	inactive	5.19	–	–
O=C1/C(=C/C2CCN(Cc3ccccc3)CC2)Cc2cc3c(cc21)OCO3	4.82	20	Active	7	inactive	–	6.12	–	Active	5.14	> 6.00	6.01
O=C1/C(=C/C2CCN(Cc3ccccc3)CC2)Cc2ccc(O)cc21	5.24	4	Active	1	inactive	5.37	5.82	–	–	5.25	–	–
COc1cccc(CN2CCC(/C=C3\Cc4cc(OC)ccc4C3=O)CC2)c1	5.66	3	Active	6	inactive	6.26	6.07	–	Active	5.46	> 6.00	–
COc1cc2c(cc1O)C(=O)/C(=C/C1CCN(Cc3ccccc3)CC1)C2	5.13	5	Active	4	inactive	5.55	5.81	–	–	4.97	–	–
COc1cccc(CN2CCC(/C=C3\Cc4cccc(OC)c4C3=O)CC2)c1	5.27	< 1	Active	< 1	inactive	4.76	4.92	–	–	5.62	–	–
COc1ccc2c(c1)C/C(=C\C1CCN(Cc3ccccc3)CC1)C2=O	5.24	132	Active	110	inactive	7.54	7.37	–	Active	5.50	> 6.00	–
COc1ccc2c(c1)C(=O)/C(=C/C1CCN(Cc3ccc4c(c3)OCO4)CC1)C2	5.01	–	Active	–	inactive	–	–	–	inactive	5.36	–	–
COc1ccc2c(c1)C(=O)/C(=C/C1CCN(Cc3ccccc3)CC1)C2	5.58	8	Active	4	inactive	6.59	6.47	5.94	–	–	–	–
COc1cc2c(cc1O)C/C(=C\C1CCN(Cc3ccccc3)CC1)C2=O	5.13	5	Active	4	inactive	5.55	5.81	–	–	4.97	–	–
O=C1/C(=C/C2CCN(Cc3ccccc3)CC2)Cc2cc(O)ccc21	5.12	4	Active	4	inactive	5.70	5.67	5.07	Active	–	> 6.00	–
COc1cccc(CN2CCC(/C=C3\Cc4ccc(OC)cc4C3=O)CC2)c1	5.79	< 1	Active	< 1	inactive	3.92	4.46	–	–	5.41	–	–
O=C1/C(=C/C2CCN(Cc3ccccc3)CC2)Cc2cccc(O)c21	5.32	7	Active	18	inactive	6.45	6.20	5.19	Active	–	> 6.00	–
COc1cc2c(cc1OC)C(=O)/C(=C/C1CCN(Cc3ccccc3)CC1)C2	5.32	81	Active	71	inactive	7.46	7.24	5.61	Active	–	> 6.00	–
